Measurements from ChEMBL document CHEMBL1154288, “The discovery and unique pharmacological profile of RO4938581 and RO4882224 as potent and selective GABAA alpha5 inverse agonists for the treatment of cognitive dysfunction” (Bioorg Med Chem Lett, 2009).
Values after ≈ are worked out from the molar mass of the structure shown.

Experiments:
[1] = Selectivity ratio of Ki for cloned human GABA alpha-1-beta-3-gamma-2 receptor expressed in insect SF9 cells to Ki for cloned human GABA alpha-5-beta-3-gamma-2 receptor expressed in insect SF9 cells
[2] = biological target: T1, GABA-A receptor; alpha-5/beta-3/gamma-2 (Homo sapiens, UniProt P18507+P28472+P31644); assay: Displacement of [3H]Flumazenil from human GABA alpha-5-beta-3-gamma-2 receptor expressed in insect SF9 cells
T1 sequence (P18507 whole entry): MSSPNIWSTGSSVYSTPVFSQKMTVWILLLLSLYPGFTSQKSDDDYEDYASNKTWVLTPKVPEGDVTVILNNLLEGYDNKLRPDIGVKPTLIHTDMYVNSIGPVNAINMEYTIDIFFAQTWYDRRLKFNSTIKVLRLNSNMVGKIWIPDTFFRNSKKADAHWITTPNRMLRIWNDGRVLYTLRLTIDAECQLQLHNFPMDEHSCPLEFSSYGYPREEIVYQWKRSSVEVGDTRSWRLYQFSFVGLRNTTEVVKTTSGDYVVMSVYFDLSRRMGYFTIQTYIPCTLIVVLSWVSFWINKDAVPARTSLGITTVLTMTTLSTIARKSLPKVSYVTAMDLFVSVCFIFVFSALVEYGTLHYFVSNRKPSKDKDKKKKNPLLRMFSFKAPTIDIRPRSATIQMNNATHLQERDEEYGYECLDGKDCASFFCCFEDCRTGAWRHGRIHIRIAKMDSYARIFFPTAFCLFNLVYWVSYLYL
T1 sequence (P28472 whole entry): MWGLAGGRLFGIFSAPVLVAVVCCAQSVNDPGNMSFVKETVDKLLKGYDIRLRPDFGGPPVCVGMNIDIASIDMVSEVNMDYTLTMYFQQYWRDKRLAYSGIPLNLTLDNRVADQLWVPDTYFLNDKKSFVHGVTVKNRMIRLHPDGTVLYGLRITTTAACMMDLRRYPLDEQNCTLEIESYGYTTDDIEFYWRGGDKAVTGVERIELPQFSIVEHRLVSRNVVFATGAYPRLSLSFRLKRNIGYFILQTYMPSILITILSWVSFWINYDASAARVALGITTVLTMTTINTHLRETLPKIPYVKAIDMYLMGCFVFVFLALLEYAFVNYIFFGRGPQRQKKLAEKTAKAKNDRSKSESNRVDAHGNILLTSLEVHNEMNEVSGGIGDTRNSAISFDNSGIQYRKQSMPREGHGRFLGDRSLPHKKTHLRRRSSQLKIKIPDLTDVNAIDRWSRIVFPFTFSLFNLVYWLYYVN
T1 sequence (P31644 whole entry): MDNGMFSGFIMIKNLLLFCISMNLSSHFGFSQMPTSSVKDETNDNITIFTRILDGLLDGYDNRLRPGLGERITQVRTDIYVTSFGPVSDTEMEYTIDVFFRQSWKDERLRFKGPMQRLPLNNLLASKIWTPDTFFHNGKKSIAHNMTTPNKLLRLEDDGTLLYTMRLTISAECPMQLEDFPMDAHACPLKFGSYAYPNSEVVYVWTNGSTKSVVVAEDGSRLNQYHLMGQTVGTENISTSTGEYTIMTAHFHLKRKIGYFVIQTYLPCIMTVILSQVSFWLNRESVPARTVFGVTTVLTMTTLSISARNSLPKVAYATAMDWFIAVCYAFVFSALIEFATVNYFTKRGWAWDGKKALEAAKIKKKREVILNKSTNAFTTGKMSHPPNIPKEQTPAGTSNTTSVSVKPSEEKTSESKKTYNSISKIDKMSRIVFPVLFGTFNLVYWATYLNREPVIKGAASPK

[3] = biological target: GABA A receptor alpha-5/beta-3/gamma-2 (Rattus norvegicus) (UniProt P18508+P19969+P63079); assay: Inverse agonist activity at rat GABA alpha-5-beta-3-gamma-2 receptor expressed in HEK293 cells by electrophysiology assay relative to GABA; assay type: functional, cell-based
[4] = Selectivity ratio of Ki for cloned human GABA alpha-3-beta-3-gamma-2 receptor expressed in insect SF9 cells to Ki for cloned human GABA alpha-5-beta-3-gamma-2 receptor expressed in insect SF9 cells
[5] = Selectivity ratio of Ki for cloned human GABA alpha-2-beta-3-gamma-2 receptor expressed in insect SF9 cells to Ki for cloned human GABA alpha-5-beta-3-gamma-2 receptor expressed in insect SF9 cells
[6] = Clearance in rat; assay type: ADME, organism-based; details: in vivo
[7] = Half life in rat; assay type: ADME, organism-based; details: in vivo
[8] = Oral bioavailability in rat; assay type: ADME, organism-based; details: in vivo
[9] = biological target: T2, GABA-A receptor; alpha-3/beta-3/gamma-2 (Homo sapiens, UniProt P18507+P28472+P34903); assay: Displacement of [3H]Flumazenil from cloned human GABA alpha-3-beta-3-gamma-2 receptor expressed in HEK293 cells; assay type: cell-based
T2 sequence (P18507 whole entry): T1 sequence (P18507 whole entry)
T2 sequence (P28472 whole entry): T1 sequence (P28472 whole entry)
T2 sequence (P34903 whole entry): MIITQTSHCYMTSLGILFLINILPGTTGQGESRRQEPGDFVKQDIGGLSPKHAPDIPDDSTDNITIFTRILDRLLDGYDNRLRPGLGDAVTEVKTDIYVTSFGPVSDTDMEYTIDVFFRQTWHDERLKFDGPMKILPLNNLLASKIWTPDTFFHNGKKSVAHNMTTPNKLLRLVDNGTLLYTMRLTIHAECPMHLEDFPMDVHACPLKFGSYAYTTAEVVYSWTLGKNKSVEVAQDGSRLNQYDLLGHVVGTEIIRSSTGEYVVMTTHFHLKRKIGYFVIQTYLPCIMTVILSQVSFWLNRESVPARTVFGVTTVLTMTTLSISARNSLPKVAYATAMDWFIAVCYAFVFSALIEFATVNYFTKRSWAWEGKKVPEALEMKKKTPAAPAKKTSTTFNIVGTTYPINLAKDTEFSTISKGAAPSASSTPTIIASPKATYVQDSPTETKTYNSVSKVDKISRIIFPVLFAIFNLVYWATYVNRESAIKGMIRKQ

[10] = Lipophilicity, log D at pH 7.4; assay type: physicochemical; details: buffer
[11] = biological target: GABA A receptor alpha-2/beta-2/gamma-2 (Rattus norvegicus) (UniProt P18508+P23576+P63138); assay: Inverse agonist activity at rat GABA alpha-2-beta-3-gamma-2 receptor expressed in HEK293 cells by electrophysiology assay relative to GABA; assay type: functional, cell-based
[12] = Solubility by lypophlisation solubility assay; assay type: physicochemical
[13] = Permeability by PAMPA; assay type: ADME; details: read-out: permeability
[14] = biological target: T3, GABA-A receptor; alpha-2/beta-3/gamma-2 (Homo sapiens, UniProt P18507+P28472+P47869); assay: Displacement of [3H]Flumazenil from cloned human GABA alpha-2-beta-3-gamma-2 receptor expressed in HEK293 cells; assay type: cell-based
T3 sequence (P18507 whole entry): T1 sequence (P18507 whole entry)
T3 sequence (P28472 whole entry): T1 sequence (P28472 whole entry)
T3 sequence (P47869 whole entry): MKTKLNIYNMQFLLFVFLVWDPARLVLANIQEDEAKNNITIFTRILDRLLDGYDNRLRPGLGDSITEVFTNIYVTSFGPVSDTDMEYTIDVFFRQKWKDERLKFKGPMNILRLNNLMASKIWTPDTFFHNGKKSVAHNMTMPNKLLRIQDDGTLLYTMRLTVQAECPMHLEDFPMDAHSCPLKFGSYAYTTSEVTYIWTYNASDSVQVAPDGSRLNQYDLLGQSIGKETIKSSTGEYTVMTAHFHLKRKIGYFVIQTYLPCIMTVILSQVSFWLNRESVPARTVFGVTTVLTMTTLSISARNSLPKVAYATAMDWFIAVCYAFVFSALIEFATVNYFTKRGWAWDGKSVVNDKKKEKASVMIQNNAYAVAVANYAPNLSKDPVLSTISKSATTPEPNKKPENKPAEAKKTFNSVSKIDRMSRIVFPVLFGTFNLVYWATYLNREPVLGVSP

[15] = Volume of distribution at steady state in rat; assay type: ADME, organism-based; details: in vivo, read-out: Vdss
[16] = biological target: Gamma-aminobutyric acid receptor subunit alpha-3 (Rattus norvegicus) (UniProt P20236); assay: Inverse agonist activity at rat GABA alpha-3-beta-3-gamma-2 receptor expressed in HEK293 cells by electrophysiology assay relative to GABA; assay type: functional, cell-based
Sequence of Gamma-aminobutyric acid receptor subunit alpha-3 (Rattus norvegicus) (P20236 whole entry): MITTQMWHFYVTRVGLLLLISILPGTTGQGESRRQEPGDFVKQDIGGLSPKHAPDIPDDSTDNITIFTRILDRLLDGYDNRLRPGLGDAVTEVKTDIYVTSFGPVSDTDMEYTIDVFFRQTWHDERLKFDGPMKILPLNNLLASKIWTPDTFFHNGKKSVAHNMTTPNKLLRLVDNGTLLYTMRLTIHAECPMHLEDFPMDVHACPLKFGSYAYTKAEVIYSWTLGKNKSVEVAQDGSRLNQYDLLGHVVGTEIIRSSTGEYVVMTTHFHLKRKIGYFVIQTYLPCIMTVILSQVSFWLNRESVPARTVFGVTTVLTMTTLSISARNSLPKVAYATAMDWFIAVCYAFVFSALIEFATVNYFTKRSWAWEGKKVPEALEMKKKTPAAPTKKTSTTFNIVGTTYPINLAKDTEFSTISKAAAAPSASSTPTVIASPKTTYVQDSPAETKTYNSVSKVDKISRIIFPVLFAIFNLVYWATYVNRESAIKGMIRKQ

[17] = biological target: GABA-A receptor; alpha-1/beta-2/gamma-2 (Rattus norvegicus) (UniProt P18508+P62813+P63138); assay: Inverse agonist activity at rat GABA alpha-1-beta-3-gamma-2 receptor expressed in HEK293 cells by electrophysiology assay relative to GABA; assay type: functional, cell-based
[18] = biological target: T1, GABA-A receptor; alpha-5/beta-3/gamma-2; assay: Displacement of [3H]Flumazenil from cloned human GABA alpha-5-beta-3-gamma-2 receptor expressed in HEK293 cells; assay type: cell-based
[19] = biological target: T4, GABA-A receptor; alpha-1/beta-3/gamma-2 (Homo sapiens, UniProt P14867+P18507+P28472); assay: Displacement of [3H]Flumazenil from cloned human GABA alpha-1-beta-3-gamma-2 receptor expressed in HEK293 cells; assay type: cell-based
T4 sequence (P14867 whole entry): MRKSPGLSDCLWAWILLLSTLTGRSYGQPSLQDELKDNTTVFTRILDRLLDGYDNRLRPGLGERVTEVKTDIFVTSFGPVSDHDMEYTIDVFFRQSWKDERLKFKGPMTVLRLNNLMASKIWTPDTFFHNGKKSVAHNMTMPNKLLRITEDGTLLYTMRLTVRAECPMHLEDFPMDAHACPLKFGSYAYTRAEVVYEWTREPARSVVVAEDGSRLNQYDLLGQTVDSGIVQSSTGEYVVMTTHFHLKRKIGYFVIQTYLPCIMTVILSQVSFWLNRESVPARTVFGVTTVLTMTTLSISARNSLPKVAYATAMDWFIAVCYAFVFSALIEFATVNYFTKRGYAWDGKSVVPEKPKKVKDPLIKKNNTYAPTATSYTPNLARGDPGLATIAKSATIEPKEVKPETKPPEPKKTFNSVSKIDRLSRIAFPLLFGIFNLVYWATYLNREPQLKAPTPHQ
T4 sequence (P18507 whole entry): T1 sequence (P18507 whole entry)
T4 sequence (P28472 whole entry): T1 sequence (P28472 whole entry)

Row | Structure (SMILES) | Ratio Ki [1] | Ki [2] | Efficacy [3] | Ratio Ki [4] | Ratio Ki [5] | further results
1 | Fc1ccc2c(c1)-c1ncnn1Cc1c(Cl)ncn1-2 | 3 | 0.3 nM | -33% | 3 | 4 | –
2 | FC(F)c1ncn2c1Cn1ncnc1-c1cc(Cl)ccc1-2 | – | – | -18% | – | – | clearance [6]: 3.8 mL/min/kg; half-life [7]: 54 min; bioavailability [8]: 87%; Ki [9]: 48 nM; logD [10]: 2; Efficacy [11]: 2%; solubility [12]: 58 µg/mL (≈ 189 µM); Papp [13]: 6.3 ×10⁻⁶ cm/s; Ki [14]: 81 nM; Vd [15]: 0.3 L/kg; Efficacy [16]: 21%; Efficacy [17]: -20%; Ki [18]: 5.6 nM; Ki [19]: 53 nM
3 | CCOC(=O)c1ncn2c1Cn1ncnc1-c1cc(F)ccc1-2 | 1 | 0.2 nM | -16% | 1 | – | Ratio [5]: 1
4 | Fc1ccc2c(c1)-c1ncnn1Cc1cncn1-2 | 12 | 10 nM | -45% | 3 | 4 | –
5 | CCC(=O)c1ncn2c1Cn1ncnc1-c1cc(Cl)ccc1-2 | 12 | 2.6 nM | -38% | 8 | 11 | –
6 | N#Cc1ncn2c1Cn1ncnc1-c1cc(Cl)ccc1-2 | 7 | 6.4 nM | -31% | 9 | 11 | –
